Source: ChEMBL document CHEMBL1148536, “Safrole oxide induces apoptosis by activating caspase-3, -8, and -9 in A549 human lung cancer cells” (Bioorg Med Chem Lett, 2006)
The source made the active and inactive calls. The rule behind the calls is not given here.

Key:
Type in all cases: functional, cell-based
Caspase-8 (Homo sapiens) = Caspase-8 (Homo sapiens) (UniProt Q14790); experiment: Effect on caspase 8 activation to initiate apoptosis in A549 human lung cancer cell line
A549 [1] = experiment: Effect on caspase 9 activation to initiate apoptosis in A549 human lung cancer cell line
A549 [2] = experiment: Effect on caspase 3 activation to initiate apoptosis in A549 human lung cancer cell line

Chain of Caspase-8 (Homo sapiens) (Q14790 217-374 limits assumed): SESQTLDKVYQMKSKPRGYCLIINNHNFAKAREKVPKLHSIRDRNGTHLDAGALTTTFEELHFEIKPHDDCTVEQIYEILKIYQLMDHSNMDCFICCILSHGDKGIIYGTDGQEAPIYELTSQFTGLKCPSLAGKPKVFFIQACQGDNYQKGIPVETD
Chain of Caspase-8 (Homo sapiens) (Q14790 385-479 limits assumed): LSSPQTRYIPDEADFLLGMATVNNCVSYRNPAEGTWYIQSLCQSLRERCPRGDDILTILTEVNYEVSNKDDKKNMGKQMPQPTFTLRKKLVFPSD

- Activity (Caspase-8 (Homo sapiens)): Active
Structure (SMILES): c1cc2c(cc1CC1CO1)OCO2 (stereo not drawn)
- Activity (A549 [1]): Active
- Activity (A549 [2]): Active
